Measurements reported in PubChem BioAssay (NCI).
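Values below derive from 48-hour exposures of cells grown in 96-well plates, with endpoints linearly interpolated between the two concentrations bracketing the appropriate inhibition level. GI50: concentration for 50% inhibition of growth. TGI: total growth inhibition.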

Legend:
Experiment in all cases: NCI-60 cell line screen, 48 h
[1] = system: COLO 205 colon
[2] = system: CAKI-1 renal
[3] = system: A549 NSCLC
[4] = system: RXF 393 renal
[5] = system: TK-10 renal
[6] = system: HCT-15 colon
[7] = system: OVCAR-8 ovarian
[8] = system: MCF7 breast
[9] = system: A498 renal
[10] = system: OVCAR-3 ovarian
[11] = system: NCI-H522 lung
[12] = system: SK-MEL-5 melanoma
[13] = system: MOLT-4 leukemia
[14] = system: SF-539 CNS
[15] = system: M14 melanoma
[16] = system: OVCAR-4 ovarian
[17] = system: KM12 colon
[18] = system: NCI-H460 lung
[19] = system: SNB-19 CNS
[20] = system: SK-MEL-28 melanoma
[21] = system: DU-145 prostate
[22] = system: OVCAR-5 ovarian
[23] = system: PC-3 prostate
[24] = system: SK-MEL-2 melanoma
[25] = system: NCI/ADR-RES ovarian
[26] = system: SF-295 CNS
[27] = system: RPMI-8226 leukemia
[28] = system: T-47D breast
[29] = system: BT-549 breast
[30] = system: LOX IMVI melanoma
[31] = system: SW-620 colon
[32] = system: SNB-75 CNS
[33] = system: EKVX NSCLC
[34] = system: 786-0 renal
[35] = system: HOP-92 NSCLC
[36] = system: HT29 colon
[37] = system: UO-31 renal
[38] = system: SF-268 CNS
[39] = system: U251 CNS
[40] = system: HCT-116 colon
[41] = system: SN12C renal
[42] = system: K-562 leukemia
[43] = system: HOP-62 NSCLC
[44] = system: MDA-MB-231 breast
[45] = system: UACC-257 melanoma
[46] = system: UACC-62 melanoma
[47] = system: HCC-2998 colon
[48] = system: SK-OV-3 ovarian
[49] = system: CCRF-CEM leukemia
[50] = system: ACHN renal
[51] = system: HL-60(TB) leukemia
[52] = system: NCI-H23 lung
[53] = system: IGROV1 ovarian
[54] = system: HS 578T breast
[55] = system: SR leukemia
[56] = system: MALME-3M melanoma

COc1ccc2c(c1OC)C(=O)OC2C1c2c(c(N)c3c(c2OC)OCO3)CCN1C (configuration not stated)
GI50 [1]: 5.6 µM | TGI [1]: 26 µM | GI50 [2]: 3.81 µM | TGI [2]: > 100 µM | GI50 [3]: 6.23 µM | TGI [3]: > 100 µM | GI50 [4]: 4.25 µM | TGI [4]: > 100 µM | GI50 [5]: 6.57 µM | TGI [5]: > 100 µM | GI50 [6]: 2640 nM | TGI [6]: 8.38 µM | GI50 [7]: 3.94 µM | TGI [7]: 35.2 µM | GI50 [8]: 3.11 µM | TGI [8]: 16.1 µM | GI50 [9]: 2440 nM | TGI [9]: 13.3 µM | GI50 [10]: 4.01 µM | TGI [10]: 34.6 µM | GI50 [11]: 2070 nM | TGI [11]: 5.3 µM | GI50 [12]: 3.03 µM | TGI [12]: 13.2 µM | GI50 [13]: 4.96 µM | TGI [13]: > 100 µM | GI50 [14]: 2110 nM | TGI [14]: 5.53 µM | GI50 [15]: 1860 nM | TGI [15]: 4.41 µM | GI50 [16]: 5.33 µM | TGI [16]: > 100 µM | GI50 [17]: 3.33 µM | TGI [17]: 62.7 µM | GI50 [18]: 3.37 µM | TGI [18]: 11.6 µM | GI50 [19]: 2700 nM | TGI [19]: 9.25 µM | GI50 [20]: 8.71 µM | TGI [20]: > 100 µM | GI50 [21]: 2800 nM | TGI [21]: 12 µM | GI50 [22]: 9.35 µM | TGI [22]: 38.8 µM | GI50 [23]: 3.42 µM | TGI [23]: > 100 µM | GI50 [24]: 3.17 µM | TGI [24]: 28.2 µM | GI50 [25]: 1580 nM | TGI [25]: 3.2 µM | GI50 [26]: 5.59 µM | TGI [26]: 61.8 µM | GI50 [27]: 3.04 µM | TGI [27]: 12.2 µM | GI50 [28]: 2630 nM | TGI [28]: 19.6 µM | GI50 [29]: 2320 nM | TGI [29]: 9.12 µM | GI50 [30]: 4.8 µM | TGI [30]: 24 µM | GI50 [31]: 3.26 µM | TGI [31]: > 100 µM | GI50 [32]: 2830 nM | TGI [32]: 11.9 µM | GI50 [33]: 5.18 µM | TGI [33]: > 100 µM | GI50 [34]: 7.51 µM | TGI [34]: > 100 µM | GI50 [35]: 12.2 µM | TGI [35]: 59.3 µM | GI50 [36]: 3.96 µM | TGI [36]: 52.8 µM | GI50 [37]: 5.28 µM | TGI [37]: 92.8 µM | GI50 [38]: 4.57 µM | TGI [38]: 23 µM | GI50 [39]: 3.94 µM | TGI [39]: > 100 µM | GI50 [40]: 3.19 µM | TGI [40]: 14.6 µM | GI50 [41]: 4.46 µM | TGI [41]: 21.9 µM | GI50 [42]: 4.43 µM | TGI [42]: > 100 µM | GI50 [43]: 5.15 µM | TGI [43]: > 100 µM | GI50 [44]: 3.15 µM | TGI [44]: 20.7 µM | GI50 [45]: 27.3 µM | TGI [45]: > 100 µM | GI50 [46]: 4.04 µM | TGI [46]: > 100 µM | GI50 [47]: 6.86 µM | TGI [47]: 28.2 µM | GI50 [48]: 3.23 µM | TGI [48]: 23.4 µM | GI50 [49]: 2630 nM | TGI [49]: 8.44 µM | GI50 [50]: 6.75 µM | TGI [50]: > 100 µM | GI50 [51]: 4.02 µM | TGI [51]: 26.4 µM | GI50 [52]: 4.74 µM | TGI [52]: > 100 µM | GI50 [53]: 1680 nM | TGI [53]: 6.68 µM | GI50 [54]: 2750 nM | TGI [54]: 9.39 µM | GI50 [55]: 3.18 µM | TGI [55]: 29.2 µM | GI50 [56]: 6.51 µM | TGI [56]: > 100 µM
